Laboratory results taken from PubChem BioAssay (NCI).
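48-hour exposure; five concentrations; linearly interpolated endpoints. GI50 is the concentration that inhibits growth by half. The concentration for full growth arrest is given as TGI.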

Key:
Assay in all cases: growth of human tumour cells (NCI), 48 h
786-0 renal = tested on: 786-0 renal
TK-10 renal = tested on: TK-10 renal
SK-MEL-5 melanoma = tested on: SK-MEL-5 melanoma
UACC-257 melanoma = tested on: UACC-257 melanoma
HOP-92 NSCLC = tested on: HOP-92 NSCLC
HT29 colon = tested on: HT29 colon
HCC-2998 colon = tested on: HCC-2998 colon
SR leukemia = tested on: SR leukemia
NCI-H226 lung = tested on: NCI-H226 lung
PC-3 prostate = tested on: PC-3 prostate

Compound: CC[C@H](NC(=O)[C@H]1CCCCN1C)C(=O)N(C)[C@H](C[C@@H](OC(C)=O)c1nc(C(=O)N[C@@H](Cc2ccccc2)C[C@H](C)C(=O)O)cs1)C(C)C
- GI50 (786-0 renal): 0.00868 µM
- TGI (786-0 renal): > 14.3 µM
- TGI (TK-10 renal): > 14.3 µM
- GI50 (SK-MEL-5 melanoma): < 0.00143 µM
- TGI (SK-MEL-5 melanoma): 0.101 µM
- GI50 (UACC-257 melanoma): > 14.3 µM
- TGI (UACC-257 melanoma): > 14.3 µM
- GI50 (HOP-92 NSCLC): 0.00585 µM
- TGI (HOP-92 NSCLC): > 6.56 µM
- GI50 (HT29 colon): 0.00388 µM
- TGI (HT29 colon): > 14.3 µM
- GI50 (HCC-2998 colon): 0.0112 µM
- TGI (HCC-2998 colon): > 14.3 µM
- GI50 (SR leukemia): 0.00183 µM
- TGI (SR leukemia): > 14.3 µM
- TGI (NCI-H226 lung): > 7.57 µM
- GI50 (PC-3 prostate): 0.00472 µM
- TGI (PC-3 prostate): > 14.3 µM

Compound: Cc1cc(Cl)cc2c(N=Nc3ccc(S(N)(=O)=O)cc3)c(O)[nH]c12
- GI50 (786-0 renal): > 25 µM
- TGI (786-0 renal): > 25 µM
- GI50 (TK-10 renal): > 25 µM
- TGI (TK-10 renal): > 25 µM
- GI50 (SK-MEL-5 melanoma): > 25 µM
- TGI (SK-MEL-5 melanoma): > 25 µM
- GI50 (UACC-257 melanoma): > 25 µM
- TGI (UACC-257 melanoma): > 25 µM
- GI50 (HOP-92 NSCLC): > 25 µM
- TGI (HOP-92 NSCLC): > 25 µM
- GI50 (HT29 colon): > 25 µM
- TGI (HT29 colon): > 25 µM
- GI50 (HCC-2998 colon): > 25 µM
- TGI (HCC-2998 colon): > 25 µM
- GI50 (SR leukemia): > 25 µM
- TGI (SR leukemia): > 25 µM
- GI50 (NCI-H226 lung): > 25 µM
- TGI (NCI-H226 lung): > 25 µM
- GI50 (PC-3 prostate): > 25 µM
- TGI (PC-3 prostate): > 25 µM

Compound: Nc1ccccc1NC(=O)c1ccc(CNc2nccc(-c3cccnc3)n2)cc1
- GI50 (786-0 renal): 2.15 µM
- TGI (786-0 renal): > 47.9 µM
- GI50 (TK-10 renal): 0.304 µM
- TGI (TK-10 renal): > 27.2 µM
- GI50 (SK-MEL-5 melanoma): 0.381 µM
- TGI (SK-MEL-5 melanoma): 1.15 µM
- GI50 (UACC-257 melanoma): 0.73 µM
- GI50 (HOP-92 NSCLC): 0.206 µM
- TGI (HOP-92 NSCLC): 2.7 µM
- GI50 (HT29 colon): 0.364 µM
- TGI (HT29 colon): 6.28 µM
- GI50 (HCC-2998 colon): 0.785 µM
- TGI (HCC-2998 colon): 2.59 µM
- GI50 (SR leukemia): 0.268 µM
- GI50 (NCI-H226 lung): 1.79 µM
- TGI (NCI-H226 lung): 23.6 µM
- GI50 (PC-3 prostate): 0.928 µM
- TGI (PC-3 prostate): > 100 µM

Compound: CCOC(=O)C1=C(C)N=c2s/c(=C\c3ccccc3O)c(=O)n2C1c1ccc(OC)c2ccccc12 (stereo not given)
- GI50 (786-0 renal): 2.59 µM
- TGI (786-0 renal): 10.3 µM
- GI50 (TK-10 renal): 11 µM
- TGI (TK-10 renal): 23.3 µM
- GI50 (SK-MEL-5 melanoma): 15.6 µM
- TGI (SK-MEL-5 melanoma): 64.8 µM
- GI50 (UACC-257 melanoma): 31.8 µM
- TGI (UACC-257 melanoma): > 100 µM
- GI50 (HOP-92 NSCLC): 16.3 µM
- TGI (HOP-92 NSCLC): 35.9 µM
- GI50 (HT29 colon): 8.29 µM
- TGI (HT29 colon): 25.1 µM
- GI50 (HCC-2998 colon): 8.43 µM
- TGI (HCC-2998 colon): 58.1 µM
- GI50 (SR leukemia): 4.4 µM
- TGI (SR leukemia): 58.8 µM
- GI50 (NCI-H226 lung): 12.6 µM
- TGI (NCI-H226 lung): 32.4 µM
- GI50 (PC-3 prostate): 23.3 µM
- TGI (PC-3 prostate): > 100 µM

Compound: Cc1ccc(Cl)cc1Nc1nc(C(F)(F)F)ccc1C(=O)N/N=C/c1cccnc1
- GI50 (786-0 renal): 2.11 µM
- TGI (786-0 renal): 11.4 µM
- GI50 (TK-10 renal): 1.32 µM
- TGI (TK-10 renal): 8.89 µM
- GI50 (SK-MEL-5 melanoma): 2.5 µM
- TGI (SK-MEL-5 melanoma): 10.3 µM
- GI50 (UACC-257 melanoma): 3.15 µM
- TGI (UACC-257 melanoma): 10.1 µM
- GI50 (HOP-92 NSCLC): 1.55 µM
- TGI (HOP-92 NSCLC): 7.37 µM
- GI50 (HT29 colon): 5.73 µM
- TGI (HT29 colon): 20.7 µM
- GI50 (HCC-2998 colon): 2.03 µM
- TGI (HCC-2998 colon): 11.1 µM
- GI50 (SR leukemia): 0.148 µM
- GI50 (NCI-H226 lung): 2.38 µM
- TGI (NCI-H226 lung): 12.4 µM
- GI50 (PC-3 prostate): 1.99 µM
- TGI (PC-3 prostate): 18.7 µM
